According to US20230012368A1 (Hoffmann-La Roche Inc., priority 2018, published 2023):
Counter-ions that a name gives are not always drawn.

system: Acinetobacter baumannii ATCC 17978; experiment: Antimicrobial susceptibility testing: 90% growth inhibitory concentration (IC90) determination; type: cell-based; settings: 90% growth inhibitory concentration; Acinetobacter baumannii ATCC17978; Iso-Sensitest broth, OD 600 nm over 16h; read-out: ATCC17978 IC90
Summary of the method: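 Growth of the Acinetobacter baumannii strain was followed by optical density at 600 nm every 20 minutes for 16h at 35±2° C. Inoculum was ~5×10^(5) CFU/ml in Iso-Sensitest medium, with twofold compound dilutions (e.g. 50 to 0.097 μM final). The 90% inhibitory concentration was derived in log-phase growth.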

| SMILES | IC90 |
| --- | --- |
| COc1ccc(-c2cnc3c(Nc4ccc(C(=O)NCC5CCOCC5)c(Cl)c4)nccn23)c(F)c1F [Example 40, 2-chloro-4-[[3-(2,3-difluoro-4-methoxy-phenyl)imidazo[1,2-a]pyrazin-8-yl]amino]-N-(tetrahydropyran-4-ylmethyl)benzamide; 2,2,2-trifluoroacetic acid] | 180 nM |
| COc1ccc(-c2cnc3c(Nc4ccc(C(=O)N(C)CCN5CCOC(CN(C)C)C5)c(C)c4)nccn23)cc1F (stereo not drawn) [Example 108, N-[2-[2-[(dimethylamino)methyl]morpholin-4-yl]ethyl]-4-[[3-(3-fluoro-4-methoxy-phenyl)imidazo[1,2-a]pyrazin-8-yl]amino]-N,2-dimethyl-benzamide; formic acid] | 1200 nM |

same assay, conditions: Acinetobacter baumannii, ATCC17978, 16 h, 90% growth inhibitory concentration; Acinetobacter baumannii ATCC17978; Iso-Sensitest broth, OD 600 nm over 16h; read-out: ATCC17978 IC90

| IC90 | SMILES |
| --- | --- |
| 1200 nM | CCc1cc(Nc2nccn3c(-c4ccc(OC)c(F)c4F)cnc23)ccc1C(=O)NCCNC(=O)N1CCN[C@H](C(=O)O)C1 [Example 350, (2S)-4-[2-[[4-[[3-(2,3-difluoro-4-methoxyphenyl)imidazo[1,2-a]pyrazin-8-yl]amino]-2-ethylbenzoyl]amino]ethylcar-bamoyl]piperazine-2-carboxylic acid;formic acid] |
| 600 nM | CCc1cc(Nc2nccn3c(-c4ccc(OC)c(F)c4F)cnc23)ccc1C(=O)NCC(C)(C)N [Example 524, N-(2-amino-2-methylpropyl)-4-((3-(2,3-difluoro-4-methoxyphenyl)imidazo[1,2-a]pyrazin-8-yl)amino)-2-ethylbenzamide hydrochloride] |
| 70 nM | N#CCOc1ccc(-c2cnc3c(Nc4ccc(C(=O)NCc5cc[nH]c(=O)c5)c(Cl)c4)nccn23)c(F)c1F [Example 85, 2-chloro-4-[[3-[4-(cyanomethoxy)-2,3-difluoro-phenyl]imidazo[1,2-a]pyrazin-8-yl]amino]-N-[(2-oxo-1H-pyridin-4-yl)methyl]benzamide] |
| 540 nM | Cc1cc(Nc2nccn3c(-c4ccc(Cl)cc4)cnc23)ccc1C(=O)NCCCCN [Example 239, N-(4-aminobutyl)-4-[[3-(4-chlorophenyl)imidazo[1,2-a]pyrazin-8-yl]amino]-2-methylbenzamide; hydrochlo-ride] |
| 110 nM | CCc1cc(Nc2nccn3c(-c4ccc(OCC#N)c(F)c4Cl)cnc23)ccc1C(=O)NCCNC(=O)[C@@H](N)CCCNC(=N)N [Example 330, N-[2-[[(2S)-2-amino-5-carbamimidamidopentanoyl]amino]ethyl]-4-[[3-[2-chloro-4-(cyanomethoxy)-3-fluorophenyl]imidazo[1,2-a]pyrazin-8-yl]amino]-2-ethylbenzamide;formic acid] |
| 340 nM | CCc1cc(Nc2nccn3c(-c4ccc(OC)c(F)c4F)cnc23)ccc1C(=O)NCCCNC(=O)[C@H](CCCNC(=N)N)NC(=O)[C@@H](N)CCC(=O)O [Example 156, (S)-4-amino-5-(((S)-1-((3-(4-((3-(2,3-difluoro-4-methoxyphenyl)imidazo[1,2-a]pyrazin-8-yl)amino)-2-ethylbenzamido)propyl)amino)-5-guanidino-1-oxopentan-2-yl)amino)-5-oxopentanoic acid trihydrochloride] |
| 180 nM | COc1ccc(-c2cnc3c(Nc4ccc(C(=O)N(C)CCCCC(=O)N5CCNCC5)c(C)c4)nccn23)cc1F [Example 273, 4-[[3-(3-fluoro-4-methoxyphenyl)imidazo[1,2-a]pyrazin-8-yl]amino]-N,2-dimethyl-N-(5-oxo-5-piperazin-1-ylpentyl)benzamide] |
| 290 nM | COc1ccc(-c2cnc3c(Nc4ccc5c(c4)CCN(CCCN)C5=O)nccn23)c(F)c1F [Example 164, 2-(3-aminopropyl)-6-[[3-(2,3-difluoro-4-methoxy-phenyl)imidazo[1,2-a]pyrazin-s-yl]amino]-3,4-dihydroisoquinolin-1-one] |
| 240 nM | CNCCN1CCc2cc(Nc3nccn4c(-c5ccc(OC)c(F)c5F)cnc34)ccc2C1=O [Example 300, 6-[[3-(2,3-difluoro-4-methoxyphenyl)imidazo[1,2-a]pyrazin-8-yl]amino]-2-[2-(methylamino)ethyl]-3,4-dihydroisoquinolin-1-one;hydrochloride] |
| 90 nM | Cc1cc(Nc2nccn3c(-c4ccc(OCC#N)c(F)c4F)cnc23)ccc1C(=O)NCCNC(=O)[C@@H]1C[C@@H](O)CN1 [Example 365, (2S,4R)-N-[2-[[4-[[3-[4-(cyanomethoxy)-2,3-difluorophenyl]imidazo[1,2-a]pyrazin-8-yl]amino]-2-methylbenzoyl]amino]ethyl]-4-hydroxypyrrolidine-2-carboxamide] |
| 3300 nM | Cc1cc(Nc2nccn3c(-c4ccc(OC(F)F)cc4)cnc23)ccc1C(=O)NC[C@H](C)N [Example 254, N-[(2S)-2-aminopropyl]-4-[[3-[4-(difluoromethoxy)phenyl]im-dazo[1,2-a]pyrazin-8-yl]amino]-2-methylbenzamide; hydrochlo-ride] |
| 230 nM | COc1ccc(-c2cnc3c(Nc4ccc(C(=O)NCCCN)c(C)c4)nccn23)c(F)c1F [Example 64, N-(3-aminopropyl)-4-((3-(2,3-difluoro-4-methoxyphenyl)imidazo [1,2-a]pyrazin-8-yl)amino)-2-methylbenzamide] |
| 150 nM | CCc1cc(Nc2nccn3c(-c4ccc(OCC#N)c(F)c4F)cnc23)ccc1C(=O)NCCNC(=O)[C@@H](N)CN [Example 145, 4-[[3-[4-(cyanomethoxy)-2,3-difluoro-phenyl]imidazo[1,2-a]pyrazin-8-yl]amino]-N-[2-[[(2S)-2,3-diaminopropanoyl]amino]ethyl]-2-ethyl-benzamide formate] |
| 440 nM | Cc1cc(Nc2nccn3c(-c4ccc(OC(F)F)cc4)cnc23)ccc1C(=O)N(C)CCCCN [Example 200, N-(4-aminobutyl)-4-[[3-[4-(difluoromethoxy)phenyl]im-idazo[1,2-a]pyrazin-8-yl]amino]-N,2-dimethylbenzamide;hydrochlo-ride] |
| 1100 nM | COc1ccc(-c2cnc3c(Nc4ccc(C(=O)NCCNC(=O)N5CCN[C@H](C(=O)O)C5)c(C)c4)nccn23)c(F)c1F [Example 348, (2S)-4-[2-[[4-[[3-(2,3-difluoro-4-methoxyphenyl)imidazo[1,2-a]pyrazin-8-yl]amino]-2-methylbenzoyl]amino]ethyl-carbamoyl]piperazine-2-carboxylic acid;formic acid] |
| 44 nM | COc1ccc(-c2cnc3c(Nc4ccc(C(=O)NCCCCCN)c(Cl)c4)nccn23)c(F)c1F [Example 492, N-(5-aminopentyl)-2-chloro-4-((3-(2,3-difluoro-4-methoxyphenyl)imidazo[1,2-a]pyrazin-8-yl)amino)benzamide hydrochloride] |
| 460 nM | CCc1cc(Nc2nccn3c(-c4ccc(Oc5ccncn5)c(F)c4F)cnc23)ccc1C(=O)NCCNC(=O)[C@H](N)CCNC(=N)N [Example 441, N-[2-[[(2R)-2-amino-4-guanidino-butanoyl]amino]ethyl]-4-[[3-(2,3-difluoro-4-pyrimidin-4-yloxy-phenyl)imidazo[1,2-a]pyrazin-8-yl]amino]-2-ethyl-benzamide; formic acid] |
| 470 nM | CCc1cc(Nc2nccn3c(-c4ccc(OC)c(F)c4F)cnc23)ccc1C(=O)NCC(O)CNC(=O)[C@@H](N)CCCN (mixture of isomers) [Example 413, rac-N-(3-((R)-2,5-diaminopentanamido)-2-hydroxypropyl)-4-((3-(2,3-difluoro-4-methoxyphenyl)imidazo[1,2-a]pyrazin-8-yl)amino)-2-ethylbenzamide dihydrochloride] |
| 250 nM | COc1ccc(-c2cnc3c(Nc4ccc(C(=O)NCC5CCN(C)CC5)c(C)c4)nccn23)c(F)c1F [Example 62, 4-((3-(2,3-difluoro-4-methoxyphenyl)imidazo [1,2-a]pyrazin-8-yl)amino)-2-methyl-N-((1-methylpiperidin-4-yl)methyl)benzamide] |
| 390 nM | CCc1cc(Nc2nccn3c(-c4ccc(OC)c(F)c4F)cnc23)ccc1C(=O)NCC(O)CNC(=O)[C@@H](N)CCN (mixture of isomers) [Example 414, rac-N-(3-((R)-2,4-diaminobutanamido)-2-hydroxypropyl)-4-((3-(2,3-difluoro-4-methoxyphenyl)imidazo[1,2-a]pyrazin-8-yl)amino)-2-ethylbenzamide dihydrochloride] |
| 3300 nM | Cc1cc(Nc2nccn3c(-c4ccc(OCC#CCN)cc4)cnc23)ccc1C(=O)N(C)CCC1CCN(C)CC1 [Example 319, 4-[[3-[4-(4-aminobut-2-ynoxy)phenyl]imidazo[1,2-a]pyrazin-8-yl]amino]-N,2-dimethyl-N-[2-(1-methylpiperidin-4-yl)ethyl]benzamide;formic acid] |
| 1200 nM | Cc1cc(Nc2nccn3c(-c4ccc(OC(F)F)cc4)cnc23)ccc1C(=O)N(C)CCN1CCOCC1 [Example 250, 4-[[3-[4-(difluoromethoxy)phenyl]im-idazo[1,2-a]pyrazin-8-yl]amino]-N,2-dimethyl-N-(2-morpholin-4-ylethyl)benzamide] |
| 110 nM | COc1ccc(-c2cnc3c(Nc4ccc(C(=O)N[C@H](C)CNC(=N)C(C)C)c(Cl)c4)nccn23)c(F)c1F [Example 509, (R)-2-chloro-4-((3-(2,3-difluoro-4-methoxyphenyl)imidazo[1,2-a]pyrazin-8-yl)amino)-N-(1-isobutyrimidamidopropan-2-yl)benzamide] |
| 2100 nM | Cc1cc(Nc2nccn3c(-c4ccc(OC(F)F)cc4)cnc23)ccc1C(=O)N(CCN1CCNCC1)C1CC1 [Example 284, N-cyclopropyl-4-[[3-[4-(difluoromethoxy)phenyl]im-idazo[1,2-a]pyrazin-8-yl]amino]-2-methyl-N-(2-piperazin-1-ylethyl)benzamide;hydrochlo-ride] |
| 460 nM | CCc1cc(Nc2nccn3c(-c4ccc(Oc5ccncn5)c(F)c4F)cnc23)ccc1C(=O)NCCNC(=O)[C@H](N)CCCNC(=N)N [Example 433, N-[2-[[(2R)-2-amino-5-guanidino-pentanoyl]amino]ethyl]-4-[[3-(2,3-difluoro-4-pyrimidin-4-yloxy-phenyl)imidazo[1,2-a]pyrazin-8-yl]amino]-2-ethyl-benzamide; formic acid] |
